Measurements taken from paper PMC7463734, “Identification and Validation of an Aspergillus nidulans Secondary Metabolite Derivative as an Inhibitor of the Musashi-RNA Interaction” (Cancers, 2020).
Where two headings read alike, the source gives them in different places.

T1: RBD1 of MSI1 (Homo sapiens, UniProt O43347)
T1 construct: made in house; host or cells: Escherichia coli
T1 sequence (O43347 20-107): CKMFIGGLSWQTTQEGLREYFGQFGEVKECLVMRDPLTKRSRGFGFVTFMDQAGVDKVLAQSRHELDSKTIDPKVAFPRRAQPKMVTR

T2: MSI2-RBD1 (Homo sapiens, UniProt Q96DH6)
T2 construct: made in house
T2 sequence (Q96DH6 21-111 limits assumed): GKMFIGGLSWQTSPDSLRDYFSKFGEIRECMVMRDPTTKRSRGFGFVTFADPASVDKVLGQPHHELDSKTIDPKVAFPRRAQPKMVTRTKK


Key:
[1] = target: T1, RBD1 of MSI1; test: FP dose-response (competition) disrupting RBD1-Numb^FITC complex; assay type: binding
Method: To further examine the initial hits, we tested compounds with similar scaffolds shown in Figure 3 and Figure S1 in an FP dose-response assay. […] We thus focused our further validation studies on Aza-9.
Figure 4 FP dose-response validation compounds binding to RBD1 of MSI1. Ki values were calculated based on the Kd and the dose-response curves. TEXT PRINTED IN THE PICTURE: Aza-7: IC50 [μM]: 7.1; Ki [μM]: 3.0 | Aza-8: IC50 [μM]: 4.0; Ki [μM]: 1.7 | Aza-9: IC50 [μM]: 2.8; Ki [μM]: 1.2 | Aza-10: IC50 [μM]: 7.5; Ki [μM]: 3.2 | Aza-11: IC50 [μM]: 3.9; Ki [μM]: 1.7 | Aza-12: IC50 [μM]: 6.3; Ki [μM]: 2.7 | Aza-13: IC50 [μM]: 4.5; Ki [μM]: 1.9 | Aza-14: IC50 [μM]: 11.6; Ki [μM]: 5.0 | Aza-15: IC50 [μM]: >20 | Aza-16: IC50 [μM]: 6.8; Ki [μM]: 2.9 | Aza-17: IC50 [μM]: >20
pET21a-GB1-RBD1 (MSI1-RBD1) plasmids encoding the Homo sapiens RNA binding domain 1 (RBD1, residues 20-107) of MSI1 were constructed with Mus musculus cDNAs under T7 promoter. MSI1-RBD1 proteins were expressed in Escherichia coli and purified, as previously described. Protein concentrations were determined using the Bradford assay (Bio-Rad, Hercules, CA, USA). Purification of MSI2-RBD1 protein was carried out according to the previous publication.
FP, SPR and NMR assays were carried out according to the previous publication. For computer modeling of Aza-9 to MSI1/2, the AutoDock4.2.6 program was used for predicting the binding mode. The NMR structure of MSI1-RBD1 in complex with RNA (PDB: 2RS2) and the NMR structure of apo MSI2-RBD1 (PDB: 6C8U) were used as the receptor structure. The MSI1 RBD1–RNA interface and corresponding site in MSI2-RBD1 was used as the starting point for the docking calculations. The initial three-dimensional model of the Aza-9 compound was generated using the BABEL program and was used as starting coordinates to define the ligand structure. For docking, a grid box of size 40 × 44 × 56 A with 0.375 A spacing was centered at residue F23 in MSI1-RBD1 (or F24 in MSI2-RBD1). A total of 200 docking runs were carried out using the Lamarckian genetic algorithm. The docked conformation with the lowest energy was selected as the final conformation.

[2] = system: T3, MSI1; test: Numb RNA pull-down from HCT-116 β/W cell lysate; assay type: cell-based, Human; details: 20 μM, 6 h
T3 construct: test whether biotinylated Numb RNA (Numb^biotin) can pull down MSI1 protein from the cell lysate; endogenous in cells; host or cells: HCT-116 β/W
From the text: To test whether Aza-9 disrupts the binding of MSI1 to Numb RNA in cells, we carried out an RNA pull-down assay using HCT-116 β/W cell lysate. Before we tested our compound in the assay, we tested whether biotinylated Numb RNA (Numb^biotin) can pull down MSI1 protein from the cell lysate. […] Mutations in Numb (Numb-mut^biotin) attenuated its binding to MSI1 (lane 2 versus lane 4, Figure 5B and Figure S4 top panel). As a positive control, we added non-labelled Numb RNA to the system, Numb RNA completely abolished the binding between Numb^biotin and MSI1 (lane 6 versus lane 4, Figure 5B and Figure S4 top panel). […] Next, we tested whether Aza-9 can attenuate MSI1 RNA binding.
RNA pull-downs were carried out according to manufacturer’s protocol with modifications (Roche, Basel, Switzerland). Briefly, HCT-116 β/W cells were plated on 100 mm dish on day 1. The next day, cells were treated with Aza-9 (20 μM) or DMSO for 6 h, and cell lysates were collected using buffer 1 from IP kit (Roche). Protein concentrations were measured for each sample, and streptavidin beads were added for preclearance and incubated at 4 °C for 3 h. After preclearance, for each sample, 500 μg of total protein was transferred to a new tube. For positive control, unlabeled Numb (final concentration: 5 μM) was added and incubated in 4 °C. […]

[3] = target: T2, MSI2-RBD1; test: FP dose response of binding to MSI2-RBD1 (Numb^FITC RNA)
From the text: To test whether Aza-9 can be used as a dual inhibitor to block the RNA-binding ability of both Musashi proteins, we tested Aza-9 for Musashi-2 (MSI2) binding in FP and NMR assays as previously described. […] These residues are in similar positions to F23, F65, and K93 in MSI1-RBD1 [36]. We mapped the peak intensity ratios lower than one standard deviation from the mean (Figure S2) to the structure of MSI2-RBD1. Residues with significant peak intensity reductions clustered around the RNA binding site, which is composed of the central four anti-parallel β sheets and surrounding loops (Figure 6C).
Figure 6 Aza-9 binds to MSI2-RBD1. (A) FP dose response of Aza-9 binding to MSI2-RBD1. (B) ^1H-^15N HSQC spectra of 80 μM ^15N and ^13C ILV methyl labeled MSI2-RBD1 with increasing molar ratios of AZA-9. (C) Mapping residues with peak intensity ratio lower than one standard deviation from the mean onto the structure of MSI2-RBD1. Residues with peak intensity ratio lower than 0.40 are colored red; residues with peak intensity ratios in the range of 0.40–0.54 are colored yellow. (D) Computational docking of Aza-9 bound to MSI2-RBD1. The Aza-9 is shown in sticks, and the protein is represented as spheres. Five of MSI2-RBD1 RNA binding residues (M23, G26, F64, V95, and K94) that undergo significant peak shifts are highlighted in green. […]

[4] = system: T4, GB1-RBD1 (MSI1); test: SPR binding to immobilized GB1-RBD1; design: species or system Homo sapiens; details: increasing concentrations
T4 construct: made in house; host or cells: Escherichia coli
From the text: An SPR assay with the protein GB1-RBD1 and not the RNA allowed us to evaluate the binding of the compound to the protein directly.
Figure 5 Validation of the top hit Aza-9. (A) SPR analyses of Aza-9 binding to immobilized GB1-RBD1. Sensorgram representing direct binding kinetics for Aza-9 are shown in response units (RUs) as a function of time with increasing concentrations (shown as colorful lines). (B) Numb RNA pulldown. (Top) Numb^biotin (lane 4) can pull down MSI1 but not CTL^biotin (lane 3); Numb-Mut^biotin (lane 2) partially pulled down MSI1. […] (Bottom) 20 μM Aza-9 attenuated the binding between MSI1 and Numb^biotin RNA. n = 2, one representative western blot is shown. (C) Overlay of 15N-HSQC (Heteronuclear single quantum coherence spectroscopy) spectra sections of MSI1-RBD1 (black), and MSI1-RBD1 bound to Aza-9 at different ratios. (D) Computational docking of Aza-9 bound to RBD1. The Aza-9 is shown in sticks, and the protein is represented as spheres. Three of MSI1-RBD1 RNA binding residues (W29, F23, and K93) that undergo significant peak shifts are highlighted in cyan.
FP, SPR and NMR assays were carried out according to the previous publication. For computer modeling of Aza-9 to MSI1/2, the AutoDock4.2.6 program was used for predicting the binding mode. […]

[5] = system: HCT-116; test: MTT-based cytotoxicity assay; assay type: cell-based, Human
Method: In an 3-(4,5-dimethylthiazol-2-yl)-2,5-diphenyl tetrazolium bromide (MTT)-based cytotoxicity assay, free Aza-9 had no effect on the cell viability (Figure 7A), potentially due to poor cellular uptake (Figure 7B, upper left panel). We then used PEGylated liposomes to facilitate Aza-9 entry into the cells (Figure 7B, bottom panel compare to upper left panel). Compared to the free Aza-9, which has no effect at 300 µM, Aza-9-liposome (Aza-9-lip) killed colon cancer cell line HCT-116 with an IC50 around 90 µM (Figure 7A). […] Consistent with MTT, Aza-9-lip, but not liposomes, inhibited cell proliferation in a cell growth assay (Figure 7C). […] (Figure 8A). To determine whether Aza-9-lip induces apoptosis and/or autophagy in the colon cancer cell lines, we first measured caspase-3 and PARP cleavage levels. As shown in Figure 8B and Figure S5, Aza-9-lip induced caspase-3 and PARP cleavage in HCT-116 and DLD-1 cells. […]
Human colon cancer cell lines HCT-116, DLD-1, and RKO were obtained from American Type Culture Collection (ATCC) and are as described by Lan et al.. Cell growth, MTT, cell cycle analysis, western blot analysis, RT-PCR, and quantitative real-time PCR were carried out according to our previous publications. For western blot analysis with Aza-9-liposome treatment, samples were collected after 24 h; for quantitative real-time PCR, samples were collected after 48 h. […]

[6] = target: GB1-MSI1-RBD1 (Homo sapiens (Methods: human RBD1, …, UniProt O43347 20-107)); test: fluorescence polarization; 2-10 nM RNA; FP with 2 nM FITC-RNA; 0-2% DMSO had no significant effect (2 h incubation); buffer, salt, pH and temperature not given (cited to earlier publications); details: protein: recombinant; tags: GB1 (protein G B1 domain); label: 3'-FITC; single strand
[7] = FP dose-response, RBD1 of MSI1, read-out: IC50
[8] = calculated based on the Kd and the dose-response curves, read-out: Ki

IC50 [1, 7] [µM]	Ki [1, 8] [µM]	Molecule	also measured
2.8	1.2	CC[C@H](C)/C=C(C)/C=C/C1=CC2=C(Br)C(=O)C(C)(OC(C)=O)C(=O)C2=CO1 (some centres unmarked) [Aza-9]	binding between MSI1 and Numb RNA (pull-down) [2]: attenuate, at least in part; IC50 [3]: 4.1 µM; Ki [3]: 0.5 µM; binding to GB1-RBD1 in SPR [4]: dose-dependent binding; dose-response effect in disrupting the RBD1-Numb^FITC complex / affinity towards GB1-RBD1 [1]: highest affinity; effect on cell viability ([5]; 300 µM, HCT-116): no effect; IC50 ([5]; Homo sapiens, HCT-116, MTT): > 300 µM
3.9	1.7	CC[C@H](C)/C=C(C)/C=C/C1=CC2=CC(=O)C(C)(O)C(=O)C2=CO1 (some centres unmarked) [Aza-11]	–
–	–	CC[C@H](C)/C=C(C)/C=C/C1=CC2=C(Cl)C(=O)C(C)(O)C(=O)C2=CO1 (some centres unmarked) [Aza-12]	IC50 [1]: 6.3 µM; Ki [1]: 2.7 µM
4.5	1.9	CC[C@H](C)/C=C(C)/C=C/C1=CC2=C(Br)C(=O)C(C)(O)C(=O)C2=CO1 (some centres unmarked) [Aza-13]	–
–	–	UAGGUAGUAGUUUUA (ssRNA) [NumbFITC RNA]	Kd [6]: < 0.25 µM

Molecule	IC50 [1, 7] [µM]	Ki [1, 8] [µM]	also measured
CC[C@H](C)/C=C(C)/C=C/C1=CC2=C(Cl)C(=O)[C@](C)(OC(C)=O)C(=O)C2=CO1 [Aza-7, sclerotiorin]	7.1	3	–
CC[C@H](C)/C=C(C)/C=C/C1=CC2=C(Cl)C(=O)C(C)(OC(C)=O)C(=O)C2=CO1 (some centres unmarked) [Aza-8]	4	1.7	–
